From PMC4685925, “Exploring architectures displaying multimeric presentations of a trihydroxypiperidine iminosugar” (Beilstein Journal of Organic Chemistry, 2015)

Target: T1, amyloglucosidase (Aspergillus niger, UniProt P69328)
T1 construct: gene GLAA
Test: commercial glycosidase inhibition assay ([…] inhibition at […]; IC50 determined)
Assay type: biochemical

T1 sequence (P69328 25-640): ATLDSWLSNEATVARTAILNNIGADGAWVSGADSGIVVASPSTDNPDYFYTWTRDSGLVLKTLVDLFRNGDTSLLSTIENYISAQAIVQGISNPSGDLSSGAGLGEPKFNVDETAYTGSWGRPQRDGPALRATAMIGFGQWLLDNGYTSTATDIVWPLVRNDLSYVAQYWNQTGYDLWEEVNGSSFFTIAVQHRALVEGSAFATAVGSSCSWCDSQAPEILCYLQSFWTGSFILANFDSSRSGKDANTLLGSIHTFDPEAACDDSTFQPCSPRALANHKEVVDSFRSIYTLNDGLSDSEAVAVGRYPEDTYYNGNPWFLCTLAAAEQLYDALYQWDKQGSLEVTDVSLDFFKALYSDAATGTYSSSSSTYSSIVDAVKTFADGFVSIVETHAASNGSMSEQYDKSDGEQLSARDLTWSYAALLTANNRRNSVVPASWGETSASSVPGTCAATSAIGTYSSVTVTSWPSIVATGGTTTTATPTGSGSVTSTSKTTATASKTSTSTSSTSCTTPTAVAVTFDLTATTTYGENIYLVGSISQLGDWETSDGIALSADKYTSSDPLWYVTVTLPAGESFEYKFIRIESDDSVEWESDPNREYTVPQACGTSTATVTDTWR

Structure (SMILES): NCc1cn(CCCN2C[C@@H](O)C(O)[C@H](O)C2)nn1 [compound 15, Deprotected monovalent iminosugar 15]
- IC50: 1.1 mM
